Literature values as cited in patent US20140113001A1, “ENHANCED ACTIVITY HYDROGEN PEROXIDE DISINFECTANT” (Virox Technologies Inc., priority 2002, published 2014).
Read-outs that look alike come from different tables or passages of the source.

Tested on: Staphylococcus aureus

Q: What does the source list for `OO` [hydrogen peroxide]?
A: time required to disinfect surfaces contaminated with staphylococcus aureus (0.1% w/w aqueous solution): 60 min; time required to disinfect surfaces contaminated with staphylococcus aureus (25.8% w/w aqueous solution): 0.333 min
